Series [1] concerns 4th stage larvae (L4) of Dirofilaria immitis. The series can be described thus: Dirofilaria immitis, L4 Stage (DiL4) In Vitro Assay. The series is classed as cell-based.
Series [2] concerns circulating microfilariae (Dirofilaria immitis). The series can be described thus: Heartworm Positive Dog Studies (effects on circulating microfilariae, clinical observations). The following applies: for Mean MF/mL, Day 0 Pre-dose / Mean MF/mL, Day 0 Post-dose, 2 hours / Mean MF/mL, Day 1 / Mean MF/mL, Day 7 / Mean MF/mL, Day 14 / Mean MF/mL, Day 21: blood, 3 dogs/treatment; for Mean MF/mL, Day 0 Pre-dose: baseline before oral dose; for Mean MF/mL, Day 0 Post-dose, 2 hours / Mean MF/mL, Day 1 / Mean MF/mL, Day 7 / Mean MF/mL, Day 14 / Mean MF/mL, Day 21: oral dose (emodepside and 1b-14 1 mg/kg, 1b-25 up to 3 mg/kg); for Mean MF/mL, Day 0 Post-dose, 2 hours / % Reduction of circulating microfilariae, Day 0 Post-dose, 2 hours: 2 hours post-dose; for % Reduction of circulating microfilariae, Day 0 Post-dose, 2 hours / % Reduction of circulating microfilariae, Day 1 / % Reduction of circulating microfilariae, Day 7 / % Reduction of circulating microfilariae, Day 14 / % Reduction of circulating microfilariae, Day 21: vs pre-dose (Day 0) counts, oral dose.

The subject of series [3] is third stage larvae of Haemonchus contortus. The experiment in a line: Haemonchus contortus L3 (HcL3) Assay. Type of series: cell-based. Particulars: 96 h, read-out: HcL3 Minimum Effective Dose (MED).
Series [4] in a line: Canine pharmacokinetic (PK) study, single IV or oral dose. Particulars: dog.
Series [5] concerns microfilariae of Dirofilaria immitis. The experiment in a line: Dirofilaria immitis, Microfilaria (DiMF) In vitro Assay. The series is classed as cell-based. Particulars: 72 h, read-out: DiMF Minimum Effective Dose (MED), approximately 72 hours incubation, microfilariae assessed for survival or paralysis.
Series [6] relates to circulating microfilariae (Dirofilaria immitis). The following applies: dog, in vivo, po, 1 mg/kg.

Like-named read-outs stand apart in the source and are kept apart here.

In general, half-life refers to how long it takes for the measured level to halve. High values mean slow loss, low ones fast loss. One may read the Cmax as the highest concentration seen after dosing. As to `CC(C)C[C@H]1C(=O)O[C@H](Cc2ccc(Cn3cc(Br)cn3)cc2)C(=O)N(C)[C@@H](CC(C)C)C(=O)O[C@H](C)C(=O)N(C)[C@@H](CC(C)C)C(=O)O[C@H](Cc2ccc(Cn3cc(Br)cn3)cc2)C(=O)N(C)[C@@H](CC(C)C)C(=O)O[C@H](C)C(=O)N1C` [Example 1b-25, (3S,6R,9S,12R,15S,18R,21S,24R)-6,18-bis[[4-[(4-bromopyrazol-1-yl)methyl]phenyl]methyl]-3,9,15,21-tetraisobutyl-4,10,12,16,22,24-hexamethyl-1,7,13,19-tetraoxa-4,10,16,22-tetrazacyclotetracosane-2,5,8,11,14,17,20,23-octaone], in series [1] (ratio of DiMF MED to DiL4 MED), the “selectivity ratio (DiMF/DiL4)” value is “about 8.3”. In addition, in series [2] (heartworm positive dogs), the “Mean MF/mL, Day 0 Pre-dose” value is given as 32,000 MF/mL; the “Mean MF/mL, Day 0 Post-dose, 2 hours” value was 34,000 MF/mL; the “Mean MF/mL, Day 1” value is listed as 26,000 MF/mL; the “Mean MF/mL, Day 7” value is given as 27,000 MF/mL. Moreover, in series [2] (heartworm positive dogs), the “Mean MF/mL, Day 14” value is reported as 40,000 MF/mL and the “Mean MF/mL, Day 21” value is given as 46,000 MF/mL. Also, the “adverse effects / clinical observations” value in series [2] (heartworm positive dogs, dosed up to 3 mg/kg (po)) was “no adverse effects observed”. For the same compound, the “effects on circulating MF counts” value in series [2] (heartworm positive dogs, dosed up to 3 mg/kg (po), out to day 21 post-dose) is on record as “no significant effects on circulating MF counts”. Besides, in series [2], the “% Reduction of circulating microfilariae, Day 0 Post-dose, 2 hours” value is −6%; the “% Reduction of circulating microfilariae, Day 1” value is 19%; the “% Reduction of circulating microfilariae, Day 7” value was 16%; the “% Reduction of circulating microfilariae, Day 14” value is recorded as −25%. Further, the “% Reduction of circulating microfilariae, Day 21” value in series [2] was −44%. Further, the minimal effective concentration in series [3] was 10 to 100 µM. In series [4] (in vivo, iv, 0.2 mg/kg), this compound gave a Vd of 3 L/kg, a clearance of 2 mL/min/kg and a half-life of 110 h. Further, in series [4] (in vivo, po, 1 mg/kg), the concentration peaked (Cmax) at 152 ng/mL. Moreover, the F in series [4] (oral 1 mg/kg) was found to be 12%.

Consider `CC(C)C[C@H]1C(=O)O[C@H](Cc2ccc(N3CCOCC3)cc2)C(=O)N(C)[C@@H](CC(C)C)C(=O)O[C@H](C)C(=O)N(C)[C@@H](CC(C)C)C(=O)O[C@H](Cc2ccc(N3CCOCC3)cc2)C(=O)N(C)[C@@H](CC(C)C)C(=O)O[C@H](C)C(=O)N1C` [emodepside, reference compound], for which, in series [1] (Dirofilaria immitis, 72 h, read-out: DiL4 Minimum Effective Dose (MED), approximately 72 hours incubation, L4 larvae assessed for survival or paralysis), the minimal effective concentration came out at 0.03 µM. In series [2] (heartworm positive dogs), the “Mean MF/mL, Day 0 Pre-dose” value is 61,000 MF/mL; the “Mean MF/mL, Day 0 Post-dose, 2 hours” value is given as 8,300 MF/mL; the “Mean MF/mL, Day 1” value is given as 4,500 MF/mL; the “Mean MF/mL, Day 7” value is listed as 8,800 MF/mL. In series [2] (heartworm positive dogs), the “Mean MF/mL, Day 14” value was 13,000 MF/mL and the “Mean MF/mL, Day 21” value is recorded as 13,000 MF/mL. In addition, the “average MF counts at 2 hours post-dose” value in series [2] (heartworm positive dogs, 1 mg/kg (po), 61,000 MF/mL of blood pre-dose) was 8,300 MF/mL of blood. In addition, the “decrease of average MF counts at 2 hours post-dose” value in series [2] (heartworm positive dogs, 1 mg/kg (po), versus pre-dose) is given as approximately 86%. Also, in series [2], the “% Reduction of circulating microfilariae, Day 0 Post-dose, 2 hours” value was 86%; the “% Reduction of circulating microfilariae, Day 1” value is reported as 93%; the “% Reduction of circulating microfilariae, Day 7” value is reported as 86%; the “% Reduction of circulating microfilariae, Day 14” value amounted to 79%. In addition, in series [2], the “% Reduction of circulating microfilariae, Day 21” value was 79%. Moreover, the minimal effective concentration in series [5] was 0.03 µM. Also, the “adverse effects / clinical observations” value in series [6] is on record as “all treated dogs exhibited adverse effects consistent with dead or dying circulating microfilariae”.
